Experiments:
DOP receptor = target: T1, DOP receptor (Homo sapiens, UniProt P41143); test: Calcium mobilization in CHO cells expressing DOP receptor and GαqG66Di5; assay type: cell-based
T1 construct: expressed in transfected cells; host or cells: CHO cells co-expressing GαqG66Di5
Description: (§1) Cell cultures were kept at 37° C. in 5% CO2 humidified air. In all cases experimental cultures were free from selection agents (hygromycin B, G418). When confluence was reached (3-4 days), cells were sub-cultured as required using trypsin EDTA and used for experimentation. Cells were seeded at a density of 50,000 cells/well into 96-well black, clear-bottom plates. After 24 hours incubation the cells were loaded with medium supplemented with 2.5 mM probenecid, 3 μM of the calcium sensitive fluorescent dye Fluo-4 AM and 0.01% pluronic acid, for 30 min at 37° C. Afterwards the loading solution was aspirated and 100 μl/well of assay buffer: Hank's Balanced Salt Solution (HBSS) supplemented with 20 mM HEPES, 2.5 mM probenecid and 500 μM Brilliant Black (Aldrich) was added. […] On-line additions were carried out in a volume of 50 μl/well. To facilitate drug diffusion into the wells in antagonist type experiments, the present studies were performed at 37° C. and three cycles of mixing (25 μl from each well moved up and down 3 times) were performed immediately after antagonist injection to the wells.
(§2) Four mice were monitored in parallel. […] Animals locomotion was recorded for 60 min.

human NOP receptor = human NOP receptor (Homo sapiens, UniProt P41146); test: Calcium mobilization in CHO cells expressing human NOP receptor and Gαqi5; assay type: cell-based; details: inactive = inactive up to 1 μM
Chain of human NOP receptor (P41146 whole entry): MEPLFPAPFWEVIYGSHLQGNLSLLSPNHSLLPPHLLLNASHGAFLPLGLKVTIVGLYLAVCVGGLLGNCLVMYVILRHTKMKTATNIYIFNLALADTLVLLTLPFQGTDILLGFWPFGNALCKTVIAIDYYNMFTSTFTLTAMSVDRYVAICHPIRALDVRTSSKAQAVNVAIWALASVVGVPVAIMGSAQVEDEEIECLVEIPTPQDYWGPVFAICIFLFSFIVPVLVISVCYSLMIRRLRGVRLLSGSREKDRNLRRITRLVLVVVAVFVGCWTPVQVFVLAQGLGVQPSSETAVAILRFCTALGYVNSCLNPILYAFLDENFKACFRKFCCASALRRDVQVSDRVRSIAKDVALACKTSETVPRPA
Description: as §1, with “Cells were maintained in culture medium consisting of Dulbecco's MEM/HAM'S F-12 (50/50) supplemented with 10% foetal calf serum, penicillin (100 IU/ml), streptomycin (100 μg/ml), fungizone (2.5 μg/ml), geneticin (G418; 200 μg/ml) and hygromycin B ([…]). Cell cultures” for “Cell cultures”
as §2

KOP receptor = KOP receptor (Homo sapiens, UniProt P41145); test: Calcium mobilization in CHO cells expressing KOP receptor and Gαqi5; assay type: cell-based; details: inactive = inactive up to 1 μM
Chain of KOP receptor (P41145 whole entry, the tested form may be a part): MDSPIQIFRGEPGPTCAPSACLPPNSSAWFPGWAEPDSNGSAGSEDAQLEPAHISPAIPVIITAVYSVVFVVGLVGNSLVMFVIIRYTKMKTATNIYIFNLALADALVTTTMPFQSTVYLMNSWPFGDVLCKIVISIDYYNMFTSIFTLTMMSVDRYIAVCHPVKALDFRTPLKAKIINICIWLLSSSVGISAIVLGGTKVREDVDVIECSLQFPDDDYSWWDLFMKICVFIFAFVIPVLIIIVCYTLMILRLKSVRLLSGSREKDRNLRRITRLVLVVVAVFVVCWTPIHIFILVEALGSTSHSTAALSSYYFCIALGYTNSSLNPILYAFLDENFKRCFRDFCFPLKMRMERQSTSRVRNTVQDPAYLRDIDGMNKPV
Description: as §1, with “Cells were maintained in culture medium consisting of Dulbecco's MEM/HAM'S F-12 (50/50) supplemented with 10% foetal calf serum, penicillin (100 IU/ml), streptomycin (100 μg/ml), fungizone (2.5 μg/ml), geneticin (G418; 200 μg/ml) and hygromycin B ([…]). Cell cultures” for “Cell cultures”, “50 μl/well. […]” for “50 μl/well. To facilitate drug diffusion into the wells in antagonist type experiments, the present studies were performed at 37° C. and three cycles of mixing (25 μl from each well moved up and down 3 times) were performed immediately after antagonist injection to the wells.”
as §2

[1] = tested on: electrically stimulated mouse vas deferens; details: versus N/OFQ; Spagnolo et al. 2007; cited from earlier work
[2] = tested on: electrically stimulated mouse vas deferens; test: Electrically stimulated mouse vas deferens
Description: The bath temperature was set at 33° C. Tissues were continuously stimulated through two platinum ring electrodes with supramaximal rectangular pulses of 1 ms duration and 0.05 Hz frequency. A resting tension of 0.3 g was applied to the vas deferens.
assuming a slope value equal to unity, where CR indicate the ratio between agonist potency in the presence and absence of antagonist.

[3] = tested on: vas deferens tissues taken from NOP(+/+) mice; test: Electrically stimulated vas deferens from NOP(+/+) mice; set-up: species or system mouse
Description: The bath temperature was set at 33° C. Tissues were continuously stimulated through two platinum ring electrodes with supramaximal rectangular pulses of 1 ms duration and 0.05 Hz frequency. A resting tension of 0.3 g was applied to the vas deferens. […] Following an equilibration period of 60 min, the contractions induced by electrical field stimulation were stable.

[4] = tested on: vas deferens tissues taken from NOP(−/−) mice; test: Electrically stimulated vas deferens from NOP(−/−) mice; set-up: species or system mouse
Description: The mouse vas deferens were prepared as previously described (Calto et al., Eur J Pharmacol. 311, (1996) R3-5). Tissues were suspended in 5 ml organ baths containing heated Krebs solution (composition in mM: NaCl 118.5, KCl 4.7, KH2PO4 1.2, NaHCO3 25, glucose 10 and CaCl2 2.5) oxygenated with 95% O2 and 5% CO2. The bath temperature was set at 33° C. Tissues were continuously stimulated through two platinum ring electrodes with supramaximal rectangular pulses of 1 ms duration and 0.05 Hz frequency. A resting tension of 0.3 g was applied to the vas deferens. The electrically evoked contractions (twitches) were measured isotonically with a strain gauge transducer (Basile 7006, UgoBasile s.r.l., Varese, Italy) and recorded with the PC based acquisition system Power Lab (ADInstrument, USA). Following an equilibration period of 60 min, the contractions induced by electrical field stimulation were stable.

MOP receptor = MOP receptor (Homo sapiens, UniProt P35372); test: Calcium mobilization in CHO cells expressing MOP receptor and Gαqi5; assay type: cell-based; details: inactive = inactive up to 1 μM
Chain of MOP receptor (P35372 whole entry): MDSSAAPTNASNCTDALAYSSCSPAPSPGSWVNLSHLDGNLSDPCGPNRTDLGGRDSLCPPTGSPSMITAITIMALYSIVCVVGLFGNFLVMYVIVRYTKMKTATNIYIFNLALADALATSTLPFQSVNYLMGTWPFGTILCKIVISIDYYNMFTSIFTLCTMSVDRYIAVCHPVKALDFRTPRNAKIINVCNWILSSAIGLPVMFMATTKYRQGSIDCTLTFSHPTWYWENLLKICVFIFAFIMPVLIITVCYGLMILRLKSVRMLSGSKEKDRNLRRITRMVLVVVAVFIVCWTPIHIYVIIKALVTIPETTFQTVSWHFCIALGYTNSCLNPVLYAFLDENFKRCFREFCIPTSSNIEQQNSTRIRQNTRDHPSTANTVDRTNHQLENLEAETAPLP
Description: as §1, §2

T1 sequence (P41143 whole entry): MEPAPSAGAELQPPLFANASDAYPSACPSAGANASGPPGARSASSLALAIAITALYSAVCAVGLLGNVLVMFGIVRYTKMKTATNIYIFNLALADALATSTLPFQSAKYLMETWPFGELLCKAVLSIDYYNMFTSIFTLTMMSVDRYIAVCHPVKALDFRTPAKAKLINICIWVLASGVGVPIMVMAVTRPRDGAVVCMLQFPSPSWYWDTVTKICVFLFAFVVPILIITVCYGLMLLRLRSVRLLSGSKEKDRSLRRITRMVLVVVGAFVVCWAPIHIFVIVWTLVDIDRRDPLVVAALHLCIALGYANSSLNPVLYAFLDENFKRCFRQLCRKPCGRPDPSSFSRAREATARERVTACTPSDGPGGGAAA

Molecule: C[C@@H](NC(=O)[C@@H](N)Cc1ccc(O)cc1)C(=O)N[C@@H](Cc1ccccc1)C(=O)NCC(=O)N[C@@H](Cc1ccc(O)cc1)C(=O)N1CCC[C@H]1C(=O)N[C@@H](CO)C(N)=O [Dermorphin]
- pEC50 (DOP receptor; inactive = inactive up to 1 μM): inactive
- pEC50 (CL95%) (human NOP receptor): inactive
- pEC50 (KOP receptor): inactive

Molecule: Dynorphin A
- pEC50 (CL95%) (human NOP receptor): inactive

Molecule: Cc1cccc2c1CC[C@H](CN1CCC(c3c(Cl)cccc3Cl)CC1)C[C@@H]2O [SB-612111, reference compound]
- SB-612111 pKB, literature [1]: 8.50
- effect per se on control twitches ([2]; 100 nM): did not modify per se the control twitches
- Kb ([2]; Mus musculus, read-out: SB-612111 pKB (CL95%), SB-612111 100 nM versus N/OFQ (converted)): 3.31 nM

Molecule: DPDPE
- pEC50 ([3]; CL95% in brackets): 8.45 (8.19-8.71)
- Emax ([3]; maximal inhibition of electrically induced contractions): 91 ± 3%
- maximal effects (DOP receptor): 86±14%
- Emax [4]: 94 ± 3
- pEC50 ([4]; CL95% in brackets): 8.42 (8.16-8.68)
- pEC50 (CL95%) (human NOP receptor): inactive
- pEC50 (KOP receptor): inactive
- pEC50 (MOP receptor): inactive
